Reference: article PMC5951806, “Rapid labelling and covalent inhibition of intracellular native proteins using ligand-directed N-acyl-N-alkyl sulfonamide” (Nature Communications, 2018)
Several values for one entry are separate records, joined by “and”; a condition that tells them apart may be missing. Equal entries are not always repeated.

How the values were obtained:
[1] = target: Heat shock protein HSP 90-beta (HSP90AB1) (Homo sapiens, UniProt P08238); test: TMT LC-MSMS of 11-labelled proteins; assay type: cell-based
From the text: (§1) The labelled proteins were enriched by immunoprecipitation with an anti-fluorescein antibody and tryptically digested in gel. Digested peptides were modified with Light- (L-), Medium- (M-), or Heavy- (H-) TMT reagent for samples treated with 11, 11 with PU-H71 (as competitive condition), or DMSO (vehicle), respectively, and mixed in a 1:1:1 ratio for LC-MSMS analysis. We performed three experimental replicates, in which proteins detected and quantified at least twice were selected as identified proteins. According to the related approach of Cravatt et al[44], the proteins having L/H (11/DMSO) ratios >5 were defined as 11-labelled proteins. […] On the basis of these criteria, we identified 6 proteins that react with 11, including three ligand-specific targets (Hsp90α (HSP90AA1), Hsp90β (HSP90AB1), and Grp94 (HSP90B1)) and three off-targets (Trifunctional enzyme subunit α (HADHA), Tubulin-α (TUBA1B), and ADP/ATP translocase 3 (SLC25A6)) (Fig. 5d, e and Supplementary Data 1). […] Grp94, a HSP90 isomer, was previously reported to be a PU-H71 specific target. TRAP-1, another Hsp90 isomer that can bind PU-H71, on the other hand, was not identified as 11-target by our criteria.
(§2) SKBR3 human breast cancer cells (2.0 × 10^6 cells) were seeded on a 10 cm dish and cultured for 3 days in McCoy’s 5A in a 5% CO2 humidified chamber at 37 °C. […] As competitive experiments, the labelling was conducted in the presence of PU-H71 (10 µM). After labelling, the cells were washed twice with PBS, and lysed with RIPA buffer. […] The supernatant was mixed with chilled acetone and incubated overnight at −80 °C. The protein precipitates were solubilized by sonication in 1 mL of RIPA buffer containing 1% SDS, and then 10-fold diluted with RIPA buffer to reduce SDS concentration to c.a. 0.1%. The protein solution (containing 1 mg of protein) was mixed with Protein G Sepharose 4 Fast Flow (GE Healthcare) and rotated at 4 °C for 1 h. After removal of the beads, the remaining supernatant was mixed with anti-fluorescein antibody (Abcam, ab19491, 7:10000) and rotated at 4 °C for 1 h, followed by addition of fresh Protein G Sepharose 4 Fast Flow and further incubation at 4 °C for 4 h. The beads were washed five times with RIPA buffer and once with PBS. Proteins were eluted from the beads by addition of 2 × sample buffer containing 100 mM DTT and boiling at 95 °C for 5 min. The samples were subjected to a 7.5% SDS–PAGE gel (Mini-PROTEAN TGX Gels, BioRad), and electrophoresed as the migration distance of dye front is about 10 mm. Each lane was excised (height, 10 mm), and treated with a 47.5% methanol / 47.5% pure water / 5% acetic acid for 20 min, a 50% methanol / 50% pure water for 10 min, and in pure water for 10 min. The gel pieces were dehydrated with 100% acetonitrile, and then swelled with 200 μL of 100 mM TEAB (triethylamine bicarbonate) buffer containing 10 mM DTT and heated at 56 °C for 30 min. The solutions were replaced with 200 µL of 100 mM TEAB buffer containing 55 mM iodoacetamide and incubated for 45 min in the dark. The gel pieces were washed with 100 mM TEAB buffer and dehydrated in acetonitrile. This step was repeated once. The gels were reswelled in 100 mM TEAB buffer containing 10 ng/μL Sequencing Grade Trypsin (Promega) and incubated overnight at 37 °C. To the gels, 50 μL of an extraction solution (50% acetonitrile, 0.1% TFA) was added. After 10 min incubation, the supernatants were collected to new tubes, and this process was repeated twice. Extracted peptides were dried in vacuo and reconstituted with 25 μL of 100 mM TEAB buffer.

[2] = target: T1, heat shock protein 75 kDa, mitochondrial (TRAP1) (Homo sapiens, UniProt Q12931); test: TMT LC-MSMS of 11-labelled proteins; assay type: cell-based
T1 sequence (Q12931 60-704): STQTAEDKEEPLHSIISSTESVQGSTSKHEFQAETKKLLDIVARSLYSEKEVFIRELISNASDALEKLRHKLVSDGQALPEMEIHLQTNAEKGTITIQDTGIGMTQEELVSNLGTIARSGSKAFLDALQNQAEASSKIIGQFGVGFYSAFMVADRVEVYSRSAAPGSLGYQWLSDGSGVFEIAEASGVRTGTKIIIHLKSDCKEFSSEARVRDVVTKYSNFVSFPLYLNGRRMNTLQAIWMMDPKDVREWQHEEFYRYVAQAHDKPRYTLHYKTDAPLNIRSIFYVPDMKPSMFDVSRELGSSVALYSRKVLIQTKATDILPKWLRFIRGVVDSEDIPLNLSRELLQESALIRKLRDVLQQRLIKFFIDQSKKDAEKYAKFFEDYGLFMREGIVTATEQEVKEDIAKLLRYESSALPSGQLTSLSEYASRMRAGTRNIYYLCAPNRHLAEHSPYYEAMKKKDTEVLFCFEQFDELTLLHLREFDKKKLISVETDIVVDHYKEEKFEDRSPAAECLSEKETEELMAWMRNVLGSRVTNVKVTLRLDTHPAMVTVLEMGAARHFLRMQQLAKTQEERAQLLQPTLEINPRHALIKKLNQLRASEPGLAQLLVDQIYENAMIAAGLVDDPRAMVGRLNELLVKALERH
From the text: as §1, §2

[3] = sheet Merged, SKBR3 cells, 11 0.5 µM 3 h vs DMSO
[4] = sheet Merged, SKBR3 cells, 11 0.5 µM 3 h vs with PU-H71 10 µM

Chain of Heat shock protein HSP 90-beta (HSP90AB1) (P08238 whole entry): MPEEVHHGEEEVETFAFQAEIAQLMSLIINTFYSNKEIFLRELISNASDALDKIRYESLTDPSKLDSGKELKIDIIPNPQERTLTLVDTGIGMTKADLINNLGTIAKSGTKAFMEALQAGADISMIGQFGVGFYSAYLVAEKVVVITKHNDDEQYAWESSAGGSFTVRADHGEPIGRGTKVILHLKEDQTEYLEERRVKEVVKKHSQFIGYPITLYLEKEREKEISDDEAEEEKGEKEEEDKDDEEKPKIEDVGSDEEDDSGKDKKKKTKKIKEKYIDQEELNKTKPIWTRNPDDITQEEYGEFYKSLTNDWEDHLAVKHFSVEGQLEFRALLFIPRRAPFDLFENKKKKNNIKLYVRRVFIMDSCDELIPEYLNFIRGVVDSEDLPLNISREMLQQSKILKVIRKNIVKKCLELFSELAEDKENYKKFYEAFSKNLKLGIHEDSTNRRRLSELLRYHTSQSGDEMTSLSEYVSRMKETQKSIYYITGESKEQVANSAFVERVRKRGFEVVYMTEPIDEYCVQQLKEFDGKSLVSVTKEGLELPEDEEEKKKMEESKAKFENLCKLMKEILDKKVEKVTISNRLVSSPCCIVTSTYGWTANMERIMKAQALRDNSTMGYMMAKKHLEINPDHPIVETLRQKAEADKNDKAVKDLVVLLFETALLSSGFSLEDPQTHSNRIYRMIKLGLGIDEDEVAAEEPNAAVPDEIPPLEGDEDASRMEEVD

Abundance Ratio: (11) / (11 with PU-H71) ([1]; Exp3, HSP90AB1): 3.363 | Abundance Ratio: (11) / (DMSO) ([1]; Exp3, HSP90AB1): 10.531 | Abundances (Grouped): 11 ([1]; Exp3, HSP90AB1): 3418.4 | Abundances (Grouped): 11 with PU-H71 ([1]; Exp3, HSP90AB1): 1016.5 | Abundance Ratio: (11) / (DMSO) ([1]; sheet Exp1, SKBR3 cells, 11 0.5 µM 3 h vs DMSO): 8.2 | Abundance Ratio: (11) / (11 with PU-H71) ([1]; sheet Exp1, SKBR3 cells, 11 0.5 µM 3 h vs with PU-H71 10 µM): 3.253 | Abundance Ratio: (11) / (11 with PU-H71) ([1]; sheet Exp2, HSP90AB1): 3.262 | Abundance Ratio: (11) / (DMSO) ([1]; sheet Exp2, HSP90AB1): 9.509 | Abundances (Grouped): 11 ([1]; sheet Exp2, HSP90AB1): 4464.4 | Abundances (Grouped): 11 with PU-H71 ([1]; sheet Exp2, HSP90AB1): 1368.7 | Abundance Ratio: (11) / (DMSO) [1, 3]: 9.3 and 9.344 | Abundance Ratio: (11) / (11 with PU-H71) [1, 4]: 3.227 | Abundance Ratio: (11) / (11 with PU-H71) ([2]; Exp3, TRAP1): 0.787 | Abundance Ratio: (11) / (DMSO) ([2]; Exp3, TRAP1): 2.947 | Abundances (Grouped): 11 ([2]; Exp3, TRAP1): 28 | Abundances (Grouped): 11 with PU-H71 ([2]; Exp3, TRAP1, with PU-H71): 35.6 | Abundance Ratio: (11) / (DMSO) [2, 3]: 2.947 | Abundance Ratio: (11) / (11 with PU-H71) [2, 4]: 0.787
SMILES: CC(=O)Oc1ccc2c(c1)Oc1cc(OC(C)=O)ccc1C21OC(=O)c2cc(C(=O)NCCOCCOCCNC(=O)CCCC(=O)N(CC#N)S(=O)(=O)c3ccc(C(=O)NCCCn4c(Sc5cc6c(cc5I)OCO6)nc5c(N)ncnc54)cc3)ccc21 [compound 11]
